IC50 and Ratio IC50 data for 2 compounds are collected here from ChEMBL document CHEMBL4184150, “Microcystins: Synthesis and structure-activity relationship studies toward PP1 and PP2A” (Bioorg Med Chem, 2018).

Assay [1] has as its target Serine/threonine-protein phosphatase 2A catalytic subunit alpha isoform (Homo sapiens, UniProt P67775). Briefly: Inhibition of recombinant human PP2A catalytic subunit L309 deletion mutant using DIFMUP as substrate pretreated for 10 mins followed by substrate addition measured every 15 secs for 30 mins by fluorescence assay.
Assay [2] deals with Serine/threonine-protein phosphatase PP1-alpha catalytic subunit (Homo sapiens, UniProt P62136). Nature of the assay: Inhibition of recombinant PP1alpha catalytic subunit (unknown origin) using DIFMUP as substrate pretreated for 10 mins followed by substrate addition measured every 15 secs for 30 mins by fluorescence assay.
Sequence of Serine/threonine-protein phosphatase PP1-alpha catalytic subunit (P62136 whole entry): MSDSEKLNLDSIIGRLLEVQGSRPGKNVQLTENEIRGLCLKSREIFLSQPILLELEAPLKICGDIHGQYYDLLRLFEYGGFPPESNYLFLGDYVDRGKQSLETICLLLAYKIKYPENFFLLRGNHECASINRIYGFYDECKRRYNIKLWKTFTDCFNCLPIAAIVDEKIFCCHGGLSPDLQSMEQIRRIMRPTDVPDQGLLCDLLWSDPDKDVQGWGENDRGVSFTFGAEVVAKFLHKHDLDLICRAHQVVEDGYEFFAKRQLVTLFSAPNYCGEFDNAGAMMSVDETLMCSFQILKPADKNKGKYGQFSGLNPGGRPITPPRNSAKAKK
Assay [3] is filed under the species Oryctolagus cuniculus. Nature of the assay: Selectivity ratio of IC50 for rabbit skeletal muscle PP2A catalytic subunit to IC50 for rabbit skeletal muscle PP1 catalytic subunit.
A short description of assay [4]: Inhibition of rabbit skeletal muscle PP2A catalytic subunit using [32P]-phosphorylase alpha as substrate pretreated for 10 mins followed by substrate addition. Set-up: species or system Oryctolagus cuniculus.
A short description of assay [5]: Inhibition of rabbit skeletal muscle PP1 catalytic subunit using [32P]-phosphorylase alpha as substrate pretreated for 10 mins followed by substrate addition. Set-up: species or system Oryctolagus cuniculus.

Sequence of Serine/threonine-protein phosphatase 2A catalytic subunit alpha isoform (P67775 whole entry, looked up, canonical isoform): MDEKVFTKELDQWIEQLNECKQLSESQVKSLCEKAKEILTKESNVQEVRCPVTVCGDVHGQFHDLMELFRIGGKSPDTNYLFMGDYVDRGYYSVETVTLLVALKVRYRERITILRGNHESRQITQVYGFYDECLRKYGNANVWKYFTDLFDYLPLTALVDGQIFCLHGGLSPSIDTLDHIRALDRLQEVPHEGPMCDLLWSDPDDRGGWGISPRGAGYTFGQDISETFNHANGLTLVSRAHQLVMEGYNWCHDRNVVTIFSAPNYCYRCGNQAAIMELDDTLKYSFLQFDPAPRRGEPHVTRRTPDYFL

Broadly, the IC50 is the point on the concentration scale where inhibition reaches its midpoint. In the case of `CC(C)C[C@@H]1NC(=O)[C@@H](C)NC(=O)CN(C)C(=O)CC[C@H](C(=O)O)NC(=O)[C@@H](C)[C@H](C)NC(=O)[C@H](Cc2ccccc2)NC(=O)C[C@H](C(=O)O)NC1=O`, the IC50 in assay [1] is 0.9 µM; in assay [2], 254 µM.

`C=C1C(=O)N[C@H](C)C(=O)N[C@@H](CC2CCCCC2)C(=O)N[C@@H](C(=O)O)[C@H](C)C(=O)N[C@@H](C)C(=O)N[C@@H](/C=C/C(C)=C/[C@H](C)[C@H](Cc2ccccc2)OC)[C@H](C)C(=O)N[C@@H](C(=O)O)CCC(=O)N1C`: in assay [3], the Ratio IC50 was 7. The values for the half-maximal inhibitory concentration (IC50) in assay [4] and in assay [5] were 0.0034 µM and 0.00052 µM, respectively.
